Experiment [1] addresses T1, ER (Homo sapiens, UniProt P03372).
T1 construct: expressed in transfected cells; host or cells: CV-1 cells (inferred: the only cells described for the co-transfection assay)
T1 sequence (P03372 1-595): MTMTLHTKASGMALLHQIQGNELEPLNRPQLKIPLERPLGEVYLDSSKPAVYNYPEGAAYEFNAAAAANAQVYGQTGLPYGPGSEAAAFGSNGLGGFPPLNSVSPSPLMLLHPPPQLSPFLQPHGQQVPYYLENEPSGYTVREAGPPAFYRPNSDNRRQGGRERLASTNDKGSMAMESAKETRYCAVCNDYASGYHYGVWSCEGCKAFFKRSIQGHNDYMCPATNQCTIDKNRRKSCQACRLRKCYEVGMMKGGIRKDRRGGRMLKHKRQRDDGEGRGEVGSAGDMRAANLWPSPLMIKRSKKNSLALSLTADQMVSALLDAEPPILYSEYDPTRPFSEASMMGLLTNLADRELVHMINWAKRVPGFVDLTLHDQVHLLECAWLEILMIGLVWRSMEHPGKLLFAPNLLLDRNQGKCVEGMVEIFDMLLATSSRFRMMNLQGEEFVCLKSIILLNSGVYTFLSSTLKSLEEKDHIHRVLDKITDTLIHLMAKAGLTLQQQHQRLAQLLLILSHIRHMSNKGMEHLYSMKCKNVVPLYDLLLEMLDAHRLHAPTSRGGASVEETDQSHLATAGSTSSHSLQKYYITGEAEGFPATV
Description: Co-transfection assay, ER antagonist. It is filed as cell-based. The following applies: Table 2; read-out: ER Potency Antag.

Experiment [2] has as its target T1, ER. Description: Co-transfection assay, ER agonist. Conditions: Table 2; read-out: ER Potency Agon. It is filed as cell-based.
Experiment [3] concerns the target T2, human AR (Homo sapiens, UniProt P10275).
T2 sequence (P10275 1-920): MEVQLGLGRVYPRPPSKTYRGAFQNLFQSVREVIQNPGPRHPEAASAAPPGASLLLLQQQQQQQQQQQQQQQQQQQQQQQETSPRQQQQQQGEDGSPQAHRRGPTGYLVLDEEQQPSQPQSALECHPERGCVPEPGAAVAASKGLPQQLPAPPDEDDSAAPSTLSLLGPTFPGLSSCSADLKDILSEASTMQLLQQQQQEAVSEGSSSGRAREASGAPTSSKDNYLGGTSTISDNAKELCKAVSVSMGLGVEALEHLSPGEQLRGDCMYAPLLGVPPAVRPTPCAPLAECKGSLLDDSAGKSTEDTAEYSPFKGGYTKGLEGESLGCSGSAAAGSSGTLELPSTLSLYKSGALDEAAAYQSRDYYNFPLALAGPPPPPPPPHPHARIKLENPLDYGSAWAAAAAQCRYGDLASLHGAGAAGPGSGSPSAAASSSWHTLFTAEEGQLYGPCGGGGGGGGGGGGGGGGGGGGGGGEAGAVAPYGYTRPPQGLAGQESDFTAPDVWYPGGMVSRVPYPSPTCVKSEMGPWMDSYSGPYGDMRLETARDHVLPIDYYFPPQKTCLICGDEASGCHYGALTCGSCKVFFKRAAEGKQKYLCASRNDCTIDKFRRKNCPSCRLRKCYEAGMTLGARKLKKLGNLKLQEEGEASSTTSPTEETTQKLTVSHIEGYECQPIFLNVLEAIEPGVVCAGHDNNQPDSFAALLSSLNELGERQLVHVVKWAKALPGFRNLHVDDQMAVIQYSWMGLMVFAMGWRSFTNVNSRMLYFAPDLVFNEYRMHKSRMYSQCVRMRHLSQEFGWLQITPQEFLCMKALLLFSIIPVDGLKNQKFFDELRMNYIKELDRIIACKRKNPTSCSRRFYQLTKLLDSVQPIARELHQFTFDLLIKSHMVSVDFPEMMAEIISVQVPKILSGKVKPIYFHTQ
Description: Co-transfection assay, AR agonist, CV-1 cells. It is filed as cell-based. The following applies: CV-1 cells; percent maximal response relative to reference agonist DHT. An excerpt:
(§1) The reporter plasmid, MTV-LUC, contains the cDNA for firefly luciferase (LUC) under control of themouse mammary tumor virus (MTV) long terminal repeat, a conditional promoter containing an androgen response element. See e.g., Berger et al. supra. In addition, pRS-β-Gal, coding for constitutive expression of E. coli β-galactosidase (β-Gal), was included as an internal control for evaluation of transfection efficiency and compound toxicity.
(§2) Three to four replicates were used for each sample.
(§3) After 40 hours, the cells were washed with PBS, lysed with a Triton X-100-based buffer and assayed for LUC and β-Gal activities using a luminometer or spectrophotometer, respectively. For each replicate, the normalized response (NR) was calculated as:
(§4) where β-Gal rate=β-Ga·1×10^−5/β-Gal incubation time.

For experiment [4], the target named is T2, human AR. Description: AR whole cell competitive binding assay (3H-DHT), COS-1 cells. Here is the method:
AR Binding: For the whole cell binding assay, COS-1 cells in 96-well microtiter plates containing DMEM-10% FBS were transfected as described above with the following plasmid DNA: pRShAR (2 ng/well), pRS-β-Gal (50 ng/well) and pGEM (48 ng/well). Six hours after transfection, media was removed, the cells were washed with PBS and fresh media was added. The next day, the media was changed to DMEM-serum free to remove any endogenous ligand that might be complexed with the receptor in the cells.
Three replicates were used for each sample. […] The remaining media was removed, the cells were washed three times with PBS to remove unbound ligand, and cells were lysed with a Triton X-100-based buffer.
For the saturation analyses, the difference between the total binding and the nonspecific binding, normalized by the β-Gal rate, was defined as specific binding.
After correcting for non-specific binding, IC50 values were determined. […] The IC50 value was determined graphically from a log-logit plot of the data. The Ki values were determined by application of the Cheng-Prusoff equivuation to the IC50 values, the labeled ligand concentration and the Kd of the labeled ligand.

The target of experiment [5] is T2, human AR. Kind of experiment: Co-transfection assay, AR antagonist, CV-1 cells (in presence of DHT). The following applies: for AR Antagonist CV-1 Cells Efficacy (%): percent maximal inhibition, DHT at EC50. The experiment is classed as cell-based.
Excerpt: as §1, §2, §3, §4

SMILES strings stand for the structures.

As to `CC(C)(O)C(=O)Nc1ccc([N+](=O)[O-])c(C(F)(F)F)c1` [Flut], the IC50 at ER [1] is over 10 µM. At ER [2], the EC50 was over 10 µM.
The Ki is the dissociation constant of the complex between target and ligand, obtained from inhibition or displacement. Higher therefore signals lower affinity. In the case of `C[S+]([O-])c1nc2cc3c(cc2c(C(F)(F)F)c1F)CCC(C)(C)N3` (racemic) [Compound 137, (R/S)-7-Fluoro-1,2,3,4-tetrahydro-2,2-dimethyl-6-trifluoromethyl-8-methylsulfinyl-9-pyrido[3,2-g]quinoline], the “AR Agonist CV-1 Cells Efficacy (%)” value on human AR [3] amounted to 10%. On human AR [4], this compound yielded a Ki of over 1 µM. Also, on human AR [5], the IC50 turned out to be 1.34 µM and the “AR Antagonist CV-1 Cells Efficacy (%)” value was determined as 84%.
Take `Cc1c2c(cc3c(C(F)(F)F)c(F)c(F)nc13)C(C)CC(C)(C)N2` (stereo not shown) [Compound 115, 7,8-Difluoro-1,2,3,4-tetrahydro-2,2,4,10-tetramethyl-6-trifluoromethyl-9-pyrido[3,2-g]quinoline]: the “AR Agonist CV-1 Cells Efficacy (%)” value at human AR [3] turned out to be 0%. For the same compound, the Ki at human AR [4] is over 1 µM. Also, on human AR [5], the IC50 came to 1.14 µM and the “AR Antagonist CV-1 Cells Efficacy (%)” value is 26%.

The record behind these values is patent US6667313B1, “8-substituted-6-triflouromethyl-9-pyrido [3,2-G] quinoline compounds as androgen receptor modulators” (Ligand Pharmaceuticals Inc., priority 1999, dated 2003).
